Assays:
[1] = target: T1, spermine oxidase (mSMO) (Mus musculus, UniProt Q99K82); test: enzyme inhibition of recombinant mSMO with Spm as substrate, Dixon plot; type: biochemical
T1 construct: gene Smox; Murine recombinant SMO

[2] = target: T1, spermine oxidase (mSMO); test: enzyme inhibition of mSMO, Ki in Table […] (reference inhibitor; assay not detailed in Methods); type: biochemical; details: cited from earlier work

T1 sequence (Q99K82 whole entry): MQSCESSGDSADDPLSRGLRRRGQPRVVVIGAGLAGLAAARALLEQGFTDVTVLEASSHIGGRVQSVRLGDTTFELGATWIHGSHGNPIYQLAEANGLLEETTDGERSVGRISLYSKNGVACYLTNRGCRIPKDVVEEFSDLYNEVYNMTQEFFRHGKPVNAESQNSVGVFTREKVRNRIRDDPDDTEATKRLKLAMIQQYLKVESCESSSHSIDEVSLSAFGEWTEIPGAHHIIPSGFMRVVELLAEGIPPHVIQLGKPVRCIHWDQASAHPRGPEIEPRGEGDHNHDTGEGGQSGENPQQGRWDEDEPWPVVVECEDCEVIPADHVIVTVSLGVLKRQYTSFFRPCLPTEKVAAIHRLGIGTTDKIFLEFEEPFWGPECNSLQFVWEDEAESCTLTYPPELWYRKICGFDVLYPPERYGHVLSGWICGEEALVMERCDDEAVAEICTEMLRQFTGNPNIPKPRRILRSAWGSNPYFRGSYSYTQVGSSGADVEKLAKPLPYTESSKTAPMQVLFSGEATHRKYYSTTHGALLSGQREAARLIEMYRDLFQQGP

SMILES: CCNCCCNCCCNCCCNCC1CC1 [CPENSpm, N^1-ethyl-N^11-(cyclopropyl)-methyl-4,8-diazaundecane]
- Ki [1]: 85 µM

SMILES: CCNCCCNCCCNCCCNCC [BENSpm]
- Ki [1]: 380 µM

SMILES: C=C=CCNCCCCNCC=C=C [MDL72527, N^1, N^4-bis(2,3-butadienyl)-1,4butanediamine]
- Ki [2]: 63 µM

— paper PMC3027604, “Spermine oxidase (SMO) activity in breast tumor tissues and biochemical analysis of the anticancer spermine analogues BENSpm and CPENSpm” (2010)
